# Laboratory results as given in publication PMC4306533, “Distinct Features of Cap Binding by eIF4E1b Proteins” (Journal of Molecular Biology, 2015).
# How the values were obtained:
# [1] = tested on: heIF4E1b; assay: time-synchronized fluorescence titration of cap analogue binding; set-up: species or system human; conditions: for Ratio Kas (h4E1a) to Kas (h4E1b): without glycerol
# Text: (§1) The time-synchronized fluorescence titration method, widely used to determine the affinity constants of cap–eIF4E complexes [[20,22–26]], measures the quenching of the intrinsic fluorescence of tryptophan residues due to cap binding (Fig. S2). Knowledge of the equilibrium association constant Kas enables the calculation of the free-energy changes involved in the interaction between eIF4E and ligand, according to the standard equation ΔG° = − RTlnKas.
# (§2) For human eIF4E1a and eIF4E1b and also for Xenopus eIF4E1a and its mutated forms, measurements were carried out using 0.1 μM protein in 50 mM Hepes/KOH (pH 7.2), 134.5 mM KCl, 0.5 mM EDTA and 1 mM DTT. For Xenopus eIF4E1b(ΔN27), the concentration was 0.2 μM and glycerol was added to the buffer to 10% (v/v) final concentration. […] Fluorescence of measured samples was excited at 280 nm (2.5 nm bandwidth) and detected at 337 nm or 330 nm (4 nm bandwidth), thus reducing the signal originated from the free cap analogues. Measurements were carried out on a LS-55 spectrofluorometer (Perkin Elmer Co.) using freshly prepared proteins, and the fluorescence intensities were corrected for sample dilution and the inner filter effect.
# (§3) Equilibrium association constants (Kas) were determined by fitting the theoretical dependence of fluorescence intensity on the total concentration of the cap analogue to the experimental data points, according to the equation described previously (see Ref. [22] and Fig. S2c).
# (§4) The final Kas was calculated as a weighted average of 2–6 independent titrations with the weights taken as the reciprocal of the numerical standard deviation squared. Numerical, nonlinear least-squares regression analysis was performed using Origin 6.0 (Microcal Software Inc.). Obtained association constants were used to determine the Gibbs free energy according to the standard equation ΔG° = − RTlnKas.
# [2] = biological target: T1, XeIF4E1a (Xenopus laevis, UniProt P48597); assay: as above; conditions: for ΔΔG^o + glycerol XeIF4E1a / Kas + glycerol XeIF4E1a: 10% glycerol; for Kas + glycerol XeIF4E1a / Kas − glycerol XeIF4E1a: equilibrium association constant; for Kas − glycerol XeIF4E1a: buffer without glycerol
# T1 construct: made in house; host or cells: E. coli Rosetta2(DE3)
# Text: as §1, §2, §3, §4
# [3] = biological target: T2, heIF4E1b (Homo sapiens, UniProt A6NMX2); assay: as above; conditions: for Kas − glycerol heIF4E1b: equilibrium association constant, buffer without glycerol
# T2 construct: made in house; host or cells: E. coli Rosetta2(DE3)
# T2 sequence (A6NMX2 1-242): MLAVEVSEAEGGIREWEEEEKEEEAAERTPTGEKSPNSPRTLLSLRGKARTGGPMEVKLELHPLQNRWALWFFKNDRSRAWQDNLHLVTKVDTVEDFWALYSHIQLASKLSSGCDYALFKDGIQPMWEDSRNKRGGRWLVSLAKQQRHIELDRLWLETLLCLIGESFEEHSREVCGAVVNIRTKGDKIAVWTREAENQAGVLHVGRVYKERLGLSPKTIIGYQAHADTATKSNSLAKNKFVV
# Text: as §1, §2, §3, §4
# [4] = biological target: T3, heIF4E1a (Homo sapiens, UniProt P06730); set-up: method as in PMID 17369309; conditions: equilibrium association constant; buffer without glycerol; footnote b; cited from earlier work
# T3 construct: made in house; host or cells: E. coli Rosetta2(DE3)
# [5] = tested on: XeIF4E1a; assay: time-synchronized fluorescence titration of cap analogue binding; set-up: species or system Xenopus laevis; conditions: without glycerol
# Text: as §1, §2, §3, §4
# [6] = tested on: XeIF4E1bΔN27; assay: as above; set-up: species or system Xenopus laevis; conditions: 10% glycerol
# Text: as §1, §2, §3, §4
# [7] = biological target: T4, X4E1a3 (E101S/K102R/S195A) (Xenopus laevis, UniProt P48597, E101S/K102R/S195A); assay: fluorescence titration, XeIF4E1a mutant; format: binding; conditions: mutant (E101S/K102R/S195A) of XeIF4E1a
# T4 construct: made in house; host or cells: E. coli Rosetta2(DE3)
# Text: (§5) We tested the effect on cap-binding activity of these positions in the fluorescence assay with six mutated recombinant versions of Xenopus eIF4E1a (Fig. S4). The amino acids were introduced in XeIF4E1a sequentially in the order: E101S/K102R/S195A/M82S/T206L/T207S (numbering of the XeIF4E1a sequence is shifted backward by 4 amino acids relative to XeIF4E1b). […] The biggest contribution to the weaker cap binding of XeIF4E1a, in each case about 20%, resulted from changing Glu101 to Ser and Thr206 to Leu coupled with Thr207 to Ser, with the remaining mutations having only minor effects. […] Glu101 is a solvent-accessible amino acid and is proximal to Trp98 in the S3-S4 loop. […] Attenuation of the cap-binding affinity of XeIF4E1a resulting from mutating Thr206 and Thr207 is consistent with our results mentioned above showing significant influence of C-terminal loop residues on binding phosphate and the second nucleotide.
# (§6) For human eIF4E1a and eIF4E1b and also for Xenopus eIF4E1a and its mutated forms, measurements were carried out using 0.1 μM protein in 50 mM Hepes/KOH (pH 7.2), 134.5 mM KCl, 0.5 mM EDTA and 1 mM DTT. For Xenopus eIF4E1b(ΔN27), the concentration was 0.2 μM and glycerol was added to the buffer to 10% (v/v) final concentration. […] The gradually increasing concentration of cap analogue quenches protein fluorescence without shifting the spectrum maximum, while at high concentrations, the fluorescence signal of free cap analogue dominates over the fluorescence from other solution components including free eIF4E and eIF4E in complex with cap (Fig. S2a). Fluorescence of measured samples was excited at 280 nm (2.5 nm bandwidth) and detected at 337 nm or 330 nm (4 nm bandwidth), thus reducing the signal originated from the free cap analogues. Measurements were carried out on a LS-55 spectrofluorometer (Perkin Elmer Co.) using freshly prepared proteins, and the fluorescence intensities were corrected for sample dilution and the inner filter effect.
# (§7) Equilibrium association constants (Kas) were determined by fitting the theoretical dependence of fluorescence intensity on the total concentration of the cap analogue to the experimental data points, according to the equation described previously (see Ref. [22] and Fig. S2c). […] Along with Kas and the concentration of the active protein [P0^act], other parameters such as fL and ∆f = fPact − fPL are also gained from the fit, where fL represents the fluorescence efficiency of free cap analogue and ∆f represents the difference between the fluorescence efficiencies of the apo-protein and the complex (Fig. S2c).
# as §4
# [8] = biological target: T5, X4E1a4 (E101S/K102R/S195A/M82S) (Xenopus laevis, UniProt P48597, E101S/K102R/M82S/S195A); assay: fluorescence titration, XeIF4E1a mutant; format: binding; conditions: mutant (E101S/K102R/S195A/M82S) of XeIF4E1a
# T5 construct: made in house; host or cells: E. coli Rosetta2(DE3)
# Text: as §5, §6, §7, §4
# [9] = biological target: T6, X4E1a6 (E101S/K102R/S195A/M82S/T206L/T207S) (Xenopus laevis, UniProt P48597, E101S/K102R/M82S/S195A/T206L/T207S); assay: fluorescence titration, XeIF4E1a mutant; format: binding; conditions: mutant (E101S/K102R/S195A/M82S/T206L/T207S) of XeIF4E1a
# T6 construct: made in house; host or cells: E. coli Rosetta2(DE3)
# Text: as §5, §6, §7, §4
# [10] = biological target: T3, heIF4E1a; assay: time-synchronized fluorescence titration of cap analogue binding; conditions: change relative to m^7GTP; without glycerol
# Text: as §1, §2, §3, §4
# [11] = change relative to m^7GTP, without glycerol
# T3 sequence (P06730 whole entry): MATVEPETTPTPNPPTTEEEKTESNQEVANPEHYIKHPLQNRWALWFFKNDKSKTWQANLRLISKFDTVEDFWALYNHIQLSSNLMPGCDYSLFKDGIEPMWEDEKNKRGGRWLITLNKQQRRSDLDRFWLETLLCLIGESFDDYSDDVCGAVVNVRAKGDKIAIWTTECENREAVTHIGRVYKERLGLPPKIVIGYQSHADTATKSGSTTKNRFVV
# T1 sequence (P48597 whole entry): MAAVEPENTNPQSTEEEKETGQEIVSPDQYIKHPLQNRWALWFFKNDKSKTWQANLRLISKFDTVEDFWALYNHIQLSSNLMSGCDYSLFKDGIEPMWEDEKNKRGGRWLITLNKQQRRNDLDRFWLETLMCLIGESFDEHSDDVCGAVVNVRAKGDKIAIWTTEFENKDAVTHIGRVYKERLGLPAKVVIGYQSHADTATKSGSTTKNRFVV
# T5 sequence (P48597 whole entry M82S/E101S/K102R/S195A): as the sequence (P48597 whole entry) above, with M82S, E101S, K102R, S195A counted along it
# T6 sequence (P48597 whole entry M82S/E101S/K102R/S195A/T206L/T207S): as the sequence (P48597 whole entry) above, with M82S, E101S, K102R, S195A, T206L, T207S counted along it
# T4 sequence (P48597 whole entry E101S/K102R/S195A): as the sequence (P48597 whole entry) above, with E101S, K102R, S195A counted along it
Ratio Kas (h4E1a) to Kas (h4E1b) [1],ΔΔG^o + glycerol XeIF4E1a ([2]; change relative to m^7Gp3G),Kas + glycerol XeIF4E1a [2],Kas − glycerol heIF4E1b [3],fold higher affinity of human eIF4E1b than eIF4E1a ([1]; human proteins),Kas − glycerol XeIF4E1a [2],Ratio Kas (h4E1a) to Kas (X4E1a) [5],Ratio Kas (X4E1a) to Kas (X4E1bΔN27) [6],ΔΔG^o + glycerol XeIF4E1bΔN27 ([6]; change relative to m^7GTP),Kas + glycerol XeIF4E1bΔN27 ([6]; equilibrium association constant),Kas X4E1a3 [7],Kas X4E1a4 [8],Kas X4E1a6 [9],ΔΔG^o − glycerol heIF4E1a [10],ΔΔG^o + glycerol XeIF4E1a ([2]; change relative to m^7GTP),"ΔΔG^o − glycerol XeIF4E1a [2, 11]","ΔΔG^o − glycerol heIF4E1b [3, 11]",SMILES,Kas − glycerol heIF4E1a [4]
1.32,0.091 ± 0.074 kcal/mol,1.96 ± 0.24 μM^− 1,4.63 ± 0.12 μM^− 1,,,,,,,,,,,,,,"COC1C(O)C(COP(=O)(O)OP(=O)(O)OP(=O)(O)OCC2OC(n3cnc4c(=O)[nH]c(N)nc43)C(O)C2O)OC1n1c[n+](C)c2c(=O)[nH]c(N)nc21 (stereo not shown) [m^7,2′-OGpppG]",6.13 ± 0.34 ^b μM^− 1
0.17,,0.055 ± 0.021 μM^− 1,0.159 ± 0.040 μM^− 1,approximately 5 fold,0.031 ± 0.006 μM^− 1,0.87,,,,,,,,,,,"Nc1nc2c(ncn2[C@@H]2O[C@H](COP(=O)(O)OP(=O)(O)OP(=O)(O)O)[C@@H](O)[C@H]2O)c(=O)[nH]1 [GTP, reference compound]",0.027 ± 0.001 ^b μM^− 1
1.84,,1.22 ± 0.053 μM^− 1,2.158 ± 0.053 μM^− 1,,2.015 ± 0.028 μM^− 1,1.97,1.99,1.479 ± 0.050 kcal/mol,0.615 ± 0.042 μM^− 1,1.57 ± 0.21 µM⁻¹,1.48 ± 0.11 µM⁻¹,1.33 ± 0.11 µM⁻¹,1.658 ± 0.053 kcal/mol,1.717 ± 0.033 kcal/mol,1.779 ± 0.029 kcal/mol,1.352 ± 0.039 kcal/mol,Cn1c[n+]([C@@H]2O[C@H](COP(=O)(O)OP(=O)(O)OP(=O)(O)OC[C@H]3O[C@@H](n4cnc5c(N)ncnc54)[C@H](O)[C@@H]3O)[C@@H](O)[C@H]2O)c2nc(N)[nH]c(=O)c21 [m^7GpppA],3.97 ± 0.21 ^b μM^− 1
